Measurements published in paper PMC8062851, “2-Methoxyestradiol and its derivatives inhibit store-operated Ca^2+ entry in T cells: Identification of a new and potent inhibitor” (Biochimica et Biophysica Acta. Molecular Cell Research, 2021).
Entries after “also recorded” stand apart in the source; their conditions may differ. Like-named read-outs stand apart in the source and are kept apart here.

How the values were obtained:
[1] = system: SOCE in Jurkat T cells; assay: Inhibition during activated SOCE (thapsigargin or anti-CD3 OKT3, 1 mM extracellular Ca2+) in Jurkat T cells; type: cell-based, human; conditions: for IC50: Homo sapiens, Jurkat, 1 mM extracellular Ca2+
Procedure: Jurkat T-lymphocytes, primary human CD4^+ T cells and H1299 cells were pelleted at 450 ×g for 5 min, rat TMBP at 300 ×g for 8 min at room temperature and were resuspended in 1 ml of either standard JMP medium (Jurkat, H1299 and human CD4^+ T cells) or standard DMEM based medium containing 10% fetal bovine serum (FBS) (v/v) (TMBP cells). Resting TMBP cells (day 5–7 after re-stimulation) after the second to fifth re-stimulation were thawed from liquid nitrogen 12 to 40 h prior to Fura2-loading. After pre-incubation for 5 min at 37 °C, cells were incubated with 4 μM Fura2-AM for 15 min at 37 °C. After addition of the dye, cells were kept in the dark. Afterwards, cells and the dye were diluted by addition of 4 ml standard medium and incubated for another 15 min. Cells were washed twice in Ca^2+ buffer (140 mM NaCl, 5 mM KCl, 1 mM MgSO4, 1 mM CaCl2, 1 mM NaH2PO4, 20 mM HEPES, 5.5 mM glucose; pH 7.4 (NaOH), sterile filtered) and were diluted to a concentration of 2*10^6 cells/ml. Subsequently, cells were kept at room temperature for 20 min for de-esterification before the start of the first measurement.
10^6 Jurkat T-lymphocytes, H1299 cells, TMBP cells or 4*10^6 primary human CD4^+ T cells were added into a 10 × 10 mm quartz glass cuvette (Hellma Analytics, Germany) that was placed into a fluorescence spectrophotometer (F-2710, Hitachi, Japan). In experiments using a Ca^2+ free/Ca^2+ re-addition protocol, cells were pelleted as described for Fura2 loading and Ca^2+ buffer was exchanged by 1 ml nominal Ca^2+ free buffer (140 mM NaCl, 5 mM KCl, 1 mM MgSO4, 1 mM NaH2PO4, 20 mM HEPES, 5.5 mM glucose; pH 7.4 (NaOH), sterile filtered) immediately before starting the measurement. The measurement was controlled by FL Solutions (Version 4.1, Hitachi High-Technologies Corporation). Fura2 was alternatively excited every 2 s at 340 ± 5 nm and 380 ± 5 nm, each 400 ms apart. Fluorescence intensity was measured at an emission wavelength of 495 ± 5 nm for both excitation wavelengths.
Finally, every measurement was calibrated using 0.1% (v/v) Triton X-100 to obtain a maximal ratio and 4 mM EGTA and 30 mM Tris to obtain a minimal ratio. […]
Besides the Ca^2+ free/Ca^2+ re-addition protocol, we also characterized the effect of STX564 in cells during activated SOCE in the presence of thapsigargin (TG, Fig. 2A,B) or upon stimulation via their TCR/CD3 complex (Fig. 2C). […]. […] Similarly, in Fig. 2C this effect of a partial or full recovery of SOCE was also observed, a few minutes after STX564 addition.

[2] = system: SERCA pumps; assay: SERCA activity (ATP-induced Ca2+ reuptake) in permeabilized Jurkat T cells; type: cell-based, human
Procedure: 3 ∗ 10^7 Jurkat T-lymphocytes per measurement were centrifuged at 450 ×g for 5 min at room temperature. The pellet was rinsed twice, each time using 10 ml permeabilization buffer 1 (120 mM KCl, 10 mM NaCl, 1.2 mM MgCl2, 0.533 mM CaCl2, 1 mM EGTA and 10 mM HEPES, pH 7.2 (KOH), sterile filtered). Subsequently, the pellet was resuspended in 2 ml permeabilization buffer 1 containing 80 μg/ml saponin (Fluka) and the cells were incubated for 10 min at 37 °C. Subsequently, the cells were centrifuged at 450 ×g for 5 min at room temperature and the cell pellet was washed once in 10 ml permeabilization buffer 2 (120 mM KCl, 10 mM NaCl, 1.2 mM MgCl2 and 10 mM HEPES, pH 7.2 (KOH), sterile filtered). Finally, the cells were taken up in 1 ml permeabilization buffer 2, placed into a cuvette and measured at the fluorescence spectrophotometer. Before the start of the measurement, 0.5 μl of 1 mM Fura2 free acid (dissolved in pure water, final concentration: 0.5 μM), 5 μl of 5 mg/ml creatinkinase (dissolved in permeabilization buffer 2, final concentration: 25 μg/ml, 20 U/ml, Roche) and 10 μl of 2 M creatin phosphate (dissolved in permeabilization buffer 2, final concentration: 20 mM, Calbiochem) were added. Fura2 was used to measure the Ca^2+ concentration and creatinkinase and creatin phosphate were used as ATP-regenerating system. The measurement was controlled by FL Solutions (Version 4.1, Hitachi High-Technologies Corporation). Fura2 was alternatively excited every 2 s at 340 ± 5 nm and 380 ± 5 nm, each 400 ms apart. Fluorescence intensity was measured at an emission wavelength of 495 ± 5 nm for both excitation wavelengths. […] Ca^2+ concentrations were calculated according to Grynkiewicz et al. as described earlier in Section 2.4.
As a quantitative read-out for inhibition of IP3 receptors, the peak [Ca^2+] after IP3 addition was subtracted from the mean [Ca^2+] between 25 and 75 s before IP3 addition (dPeak). […] The rate constant K of the fitted data was used as a quantitative read-out for SERCA pump activity and its inhibition.

[3] = system: TMBP cells; assay: In vitro activation of TMBP cells by MBP, CD25 surface expression by flow cytometry; type: cell-based, rat
Procedure: In vitro activation assays were performed in 96-well plates. […]. TMBP cell activation on mRNA level was determined using qPCR and on surface protein level using surface marker staining and subsequent flow cytometry analysis.
To assess in vitro T cell activation, surface staining for CD25 (OX39, Bio-Rad) was performed. APC-labelled goat anti-mouse antibody (Jackson ImmunoResearch) was used as secondary antibody. Mouse IgG1κ (MOPC 31C, Sigma-Aldrich) was used as control.
Cytofluorometric analysis was carried out with a CytoFLEX S (Beckman Coulter) operated by CytExpert software (Beckman Coulter). All procedures were performed at 4 °C. Data were analyzed by using FlowJo software (FlowJo, LLC).

Structure (SMILES): CCc1cc2c(cc1OS(N)(=O)=O)CC[C@@H]1[C@@H]2CC[C@]2(C)[C@@H](CC#N)CC[C@@H]12 [STX564, 2-ethyl-3-sulfamoyloxy-17β-cyanomethylestra-1,3,5(10)-triene]
- IC50 ([1]; read-out: IC50 of SOCE inhibition during active SOCE, Jurkat T cells stimulated by 1 μM thapsigargin (TG)): 3000 nM
- IC50 ([1]; read-out: IC50 of SOCE inhibition during active SOCE, Jurkat T cells stimulated by 1 μg/ml αCD3 (OKT3)): 2000 nM
- extent of inhibition when added during activated SOCE ([1]; Jurkat T cells, TG or TCR/CD3 stimulation): only partial inhibition
- effect on SERCA activity (initial slope of [Ca2+] upon ATP addition) [2]: Neither STX564, Synta66 nor vehicle DMSO affected ATP-induced Ca^2+ reuptake by SERCA pumps; also recorded: neither STX564 nor Synta66 showed any effect
- concentration at which up-regulation of CD25 was significantly reduced [3]: ≥ 0.1 µM
